Measured values: US12270065B2, “Methods for improving titer and purity of beta carotene fermentation in Blakeslea trispora (beta-carotene fermentation method)” (DSM IP Assets B.V., priority 2019, dated 2025)

Tests used:
B. trispora [1] = assay: Effect on beta-carotene production with B. trispora in shake flask fermentation (HPLC); format: cell-based, Blakeslea trispora; details: for BC: average of two measurements; for Increase BC: compared to control with no curcumin/isoniazid
Description: (§1) Shake flask seed medium MIBLT-1. 23.5 g/l corn meal, 23 g/l soybean meal, 10 g/l glucose, 0.5 g/l KH2PO4 are mixed, the medium pH is adjusted to 6.3, homogenized with an Ultra-Turrax® blender (Ika) for 8 minutes at 13500 rpm, and heated at 70° C. for 45 minutes prior to autoclaving.
(§2) Shake flask production medium MF-BLT-22. 17.5 g/l corn meal, 40 g/l soya flour, 10 g/l soy lecithin, 0.5 g/l KH2PO4, 109 g/l soy oil, optionally 0.28 g/l isoniazid, optionally curcumin (1.0, 0.3, 0.1, 0.03 or 0.01% w/v), are mixed, the medium pH is adjusted to 6.3, is homogenized with an Ultra-Turrax® blender (Ika) for 8 minutes at 13500 rpm, and heated at 70° C. for 45 minutes prior to autoclaving.
(§3) Shake Flask Process. An Erlenmeyer flask (250 or 300 mL volume) containing 30 ml of seed medium (MIBLT-1) is inoculated with spores of B. trispora (−) strain to a concentration of 4.5×10^3 spores/ml. A second Erlenmeyer flask containing 30 ml of MIBLT-1 is inoculated with spores of B. trispora (+) strain to a concentration of 1.5×10^3 spores/ml. The flasks are incubated (220 rpm, 5 cm displacement, 27° C., protected from light) for 48 hr. Three ml of (+) strain culture are added to 30 ml of (−) strain culture, and the mated strains mixture is incubated (220 rpm, 5 cm throw, 27° C., protected from light) for 45 minutes. Erlenmeyer flasks (250 or 300 mL volume) containing 20 ml of production medium (MF-BLT-22) are inoculated with 2 ml of the mated strains mixture. Flasks are incubated (250 rpm, 5 cm displacement, 25° C., protected from light). At 48 hours after inoculation of the 20 mL production cultures, 40 μL of a 50% v/v sterile beta-ionone solution in absolute ethanol is added to each flask. Cultures are returned to the incubator for a total of 7 days post inoculation.
(§4) Sample preparation for HPLC-analysis. Each flask culture is transferred to a 50 mL conical tube and homogenized with an Ultra-Turrax® blender (Ika) for 2 minutes at 24000 rpm. Weigh out one gram of sample into a 100 ml volumetric flask. Eighty milliliters of Solution A are added to the flask and the flask is sonicated for 5 min. The volume is brought to 100 ml with solution A, and the solution is stirred for 60 minutes and allowed to settle for another hour.
(§5) HPLC-analysis. Samples from the above extract (10 μl) are injected as is on a calibrated HPLC using a Suplex-PKB-100 column (Supelco), with a flow rate of 0.6 ml/min, and column temperature of 30° C. The mobile phase contains (per L) 455 ml acetonitrile, 500 ml methanol, 0.2 ml N-ethyldiisopropylamine, 25 ml aqueous solution of 0.2% ammonium acetate, and 50 mg BHT (dissolved in 20 ml of 2-propanol). Compounds are identified and quantified by UV at 448 nm.
Concentration of beta-carotene was measured as described in Example 1, with comparison of different concentrations of curcumin.

B. trispora [2] = assay: Effect on beta-carotene purity profile with B. trispora (percentage of total carotenoids, HPLC); format: cell-based, Blakeslea trispora; details: for 7,8-DH [%] of total carotenoids / BC [%] of total carotenoids: average of two measurements
Description: as §1, §2, §3, §4, §5
Fermentations and analysis were performed as described in Ex. 2, including addition of various concentrations of curcumin.

[3] = curcumin 0.3% w/v, listed as Curcumin

Q: Which “BC” value (B. trispora [1]; isoniazid 0.28 g/l in production medium, no curcumin) does the source give for `NNC(=O)c1ccncc1` [isoniazid, reference compound] here?
A: 4.17 g/L

Q: What about the “increase in the percentage of beta-carotene based on total carotenoids” value (B. trispora [2]; addition of 0.28 g/l isoniazid, compared to no isoniazid) of the same compound?
A: less than 10%

Q: And the “percentage of 7,8-dihydro-beta-carotene based on total carotenoids” value (B. trispora [2]; addition of isoniazid (0.28 g/l))?
A: 28.1%

Q: `COc1cc(/C=C/C(=O)CC(=O)/C=C/c2ccc(O)c(OC)c2)ccc1O` [curcumin] was tested. Which “BC” value (B. trispora [1]; curcumin 0.01% w/v in production medium, no isoniazid) did it give?
A: 1.74 g/L

Q: What about the “Increase BC” value (B. trispora [1]; curcumin 0.01% w/v) of the same compound?
A: 12%

Q: And the “BC” value (B. trispora [1]; curcumin 0.03% w/v in production medium, no isoniazid)?
A: 2.45 g/L

Q: What about the “Increase BC” value (B. trispora [1]; curcumin 0.03% w/v) of the same compound?
A: 58%

Q: What about the “BC” value (B. trispora [1]; curcumin 0.1% w/v in production medium, no isoniazid) of the same compound?
A: 3.48 g/L

Q: What about the “Increase BC” value (B. trispora [1]; curcumin 0.1% w/v) of the same compound?
A: 125%

Q: And the “BC” value (B. trispora [1]; curcumin 0.3% w/v in production medium, no isoniazid)?
A: 4.99 g/L

Q: What about the “Increase BC” value (B. trispora [1]; curcumin 0.3% w/v) of the same compound?
A: more than 220%

Q: What about the “Increase BC” value (B. trispora [1]; [3]) of the same compound?
A: 222%

Q: What about the “BC” value (B. trispora [1]; curcumin 1.0% w/v in production medium, no isoniazid) of the same compound?
A: 4.55 g/L

Q: And the “Increase BC” value (B. trispora [1]; curcumin 1.0% w/v)?
A: 194%

Q: What about the “increase of percentage of beta-carotene based on total carotenoids” value (B. trispora [2]; 0.3% curcumin, compared to fermentations without curcumin) of the same compound?
A: about 10%

Q: What about the “percentage of 7,8-dihydro-beta-carotene based on total carotenoids” value (B. trispora [2]; about 0.3 to 1.0% curcumin) of the same compound?
A: about 3%

Q: What about the “reduction of 7,8-dihydro-beta-carotene based on total carotenoids” value (B. trispora [2]; about 1.0% (w/v) curcumin, compared to no curcumin) of the same compound?
A: about 68%

Q: What about the “reduction of 7,8-dihydro-beta-carotene based on total carotenoids” value (B. trispora [2]; addition of curcumin (amount not specified), compared to fermentation without curcumin) of the same compound?
A: at least 28%

Q: What about the “7,8-DH [%] of total carotenoids” value (B. trispora [2]; curcumin 0.01% w/v) of the same compound?
A: 9.98%

Q: What about the “BC [%] of total carotenoids” value (B. trispora [2]; curcumin 0.01% w/v) of the same compound?
A: 81.19%

Q: And the “7,8-DH [%] of total carotenoids” value (B. trispora [2]; curcumin 0.03% w/v)?
A: 6.99%

Q: And the “BC [%] of total carotenoids” value (B. trispora [2]; curcumin 0.03% w/v)?
A: 85.59%

Q: What about the “7,8-DH [%] of total carotenoids” value (B. trispora [2]; curcumin 0.1% w/v) of the same compound?
A: 5.79%

Q: What about the “BC [%] of total carotenoids” value (B. trispora [2]; curcumin 0.1% w/v) of the same compound?
A: 86.75%

Q: And the “7,8-DH [%] of total carotenoids” value (B. trispora [2]; curcumin 0.3% w/v)?
A: 3.35%

Q: And the “BC [%] of total carotenoids” value (B. trispora [2]; curcumin 0.3% w/v)?
A: about 91%

Q: And the “BC [%] of total carotenoids” value (B. trispora [2]; [3])?
A: 91.44%

Q: And the “7,8-DH [%] of total carotenoids” value (B. trispora [2]; curcumin 1.0% w/v)?
A: 3.12%

Q: What about the “BC [%] of total carotenoids” value (B. trispora [2]; curcumin 1.0% w/v) of the same compound?
A: 92.17%
